Measurements published in patent US20220251085A1, “CYSTEINE BINDING COMPOSITIONS AND METHODS OF USE THEREOF” (University of Virginia Patent Foundation, priority 2019, published 2022).

Assay: HPLC assay for profiling solution reactivity and stability of purine inhibitors
Format: physicochemical
Conditions: N7 versus N9 tautomer, on ice 6 h
Experimental: HPLC assay for profiling solution reactivity and stability of purine inhibitors—The following reagents were prepared and stored on ice prior to use. 0.1 M solution of caffeine in acetonitrile, 1.0 M solution of amino acid mimetic (butanethiol), tetramethylguanidine (TMG), 1 M HOAc in ACN and 10 mM solution of purine fragment in ACN mixture. 500 μL of fragment solution were transferred to a dram vial on ice. To the mixture, 5.5 μL of TMG and 5.5 μL of respective amino acid mimetic were added and solutions were stirred on ice for 6 h. To monitor reactivity, 50 μL aliquots were removed at indicated time points and quenched with 10 μL of a 1:1 mixture of caffeine and HOAc. Samples were injected (1 μL) and analyzed by reverse-phase HPLC on a Shimadzu 1100 Series spectrometer (Shimadzu Corporation, Kyoto, Japan) with UV detection at 254 nm. Reaction progress was evaluated by monitoring consumption of starting material (purine fragment) normalized to caffeine standard. Chromatographic separation was performed using a Phenomenex Kinetex C18 column (2.6 μm, 50×4.6 mm; Phenomenex, Torrance, Calif., United States of America). Mobile phases A and B were composed of H2O+0.1% HOAc and ACN+0.1% HOAc, respectively. […] All purine fragment peak AUCs used for calculations were normalized to caffeine standard AUCs at respective time points to account for run-to-run variations by HPLC. […]

Row | reactivity for butanethiol | Structure (SMILES)
1 | essentially equivalent reactivity | O=S(=O)(c1ccc(F)cc1)n1cnc2nc(Cl)nc(Cl)c21 [Pi-13, 2,6-dichloro-7-((4-fluorophenyl)sulfonyl)-7H-purine]
2 | essentially equivalent reactivity | O=S(=O)(c1ccc(F)cc1)n1cnc2c(Cl)nc(Cl)nc21 [Pi-14, 2,6-dichloro-9-((4-fluorophenyl)sulfonyl)-9H-purine]
